Converted amounts (≈) assume the structure as drawn. Where a name gives a salt, the structure may show the parent alone.
Experiments:
leukocyte esterase (LE) [1] = experiment: Kinetics of reaction with LE by ICECEA (Michaelis-Menten); assay type: biochemical, human; conditions: 6.0 nM LE; for Km / kcat: 1-40 μM compound, PBS pH 7.40, 21° C.; for kcat Km^−1: PBS pH 7.40, Table 2
Procedure: FIG. 2. Michaelis-Menten plots for 6.0 nM LE and 1-40 μM compound: (a) I, (b) II, and (c) III, in PBS (pH 7.40). The solid lines represent the best fit to the experimental points based on the nonlinear regression.
The properties of compounds I-III as LE substrates were further investigated by determining their kinetics of reaction with LE (reaction 1). The initial rate of reaction 1 was measured by ICECEA at a constant LE concentration (cLE=6.0 nM; MW=29 kDa) and under the condition of cLE<<ccompound I-III(ccompound I-III=1-40 μM). The assays were conducted within a linear range of calibration plot for HQ at a GC electrode. One unit (U) of LE activity was defined as the amount of enzyme that catalyzed the hydrolysis of 1.0 μmole of a compound I-III per minute in a PBS solution at room temperature (21° C.). The LE activity (U L^−1) was calculated from the equation
[formula] where AS is an assay slope equal to the slope of rising I-t segment and CS is a calibration slope calculated from the I-t steps of ICECEA traces similar to those shown in FIG. 1. […] The analysis of such plots using the Michaelis-Menten kinetics yielded the Michaelis constants Km and turnover numbers kcat, which are shown in Table 1.

[2] = Solubility in water by UV-visible spectrophotometry; assay type: physicochemical; conditions: thermodynamic from solid, room temperature (21° C.), A270
Procedure: Solubility. The solubility of compounds I-III was determined by UV-visible spectrophotometry. The compounds were dissolved in water at room temperature (21° C.) to make a series of solutions with increasing concentration. The solutions were stirred continuously and their spectra were recorded until steady-state equilibrium was reached. Below the solubility limit, the steady-state background-corrected absorbance of solution at 270 nm (A270) was directly proportional to the compound concentration as expected by the Beer-Lambert law. Above the solubility limit, the absorbance steadily levelled off. The low- and high-concentration regions of plots A270 vs. compound concentration were linearized and extrapolated to a crossing point, which was taken as the solubility of compound.

[3] = system: leukocyte esterase (LE) of white blood cell (WBC) suspensions; experiment: Electrochemical LE assay (ICECEA) of human leukocyte suspensions; assay type: biochemical; conditions: for Average activity of single WBC: 100 μM substrate, pH 7.40 PBS, 0.40 V, from slopes of FIG. 3
Procedure: FIG. 3. Dependence of LE activity on the white blood cell (WBC) count in leukocyte suspensions determined by using ICECEA and compound: (a) I, (b) II, and (c) III. Assay solution, 100 μM substrate I, II, or III in a pH 7.40 PBS solution. Concentration of HQ calibration spikes, 0.54 μM. Dilution factor, 100×. Potential, 0.40 V.
Finally, the compounds I-III were tested in the development of electrochemical LE assay using the ICECEA. The assay was optimized with respect to the detection potential, sample dilution factor, and solution composition (pH, concentration). Such assay was used to determine the esterolytic activity of a series of human leukocyte suspensions. […] Accordingly, the average esterolytic activity of single WBC calculated using the slopes of plots in FIG. 3 was the highest when determined using a compound III (Table 2).
Preparation of Leukocyte Suspensions. The original suspension of leukocytes was diluted 10 times with a PBS solution that contained 10 vol. % DMSO and left for 30 min on a shaker table at 60 rpm to lyse the leukocytes chemically. Such a suspension preserved a constant esterolytic activity for at least 5 days when stored in a refrigerator at 4° C. It was used as a solution C (vide infra) for the ICECEA.

leukocyte esterase (LE) [4] = experiment: ICECEA test of recognition of compounds by LE as substrates (release of hydroquinone); assay type: biochemical, human; conditions: 60 μg mL^−1 compound, 86.7 μg L^−1 LE protein, pH 7.40 PBS, 0.40 V
Procedure: FIGS. 1A-B. (A) ICECEA I-t trace recorded at 0.40 V in a stirred pH 7.40 assay solution containing a tested compound. Each current step is due to the addition of hydroquinone calibrating aliquot to a solution. […] Otherwise, this segment was flat. (B) ICECEA current-time (I-t) traces recorded at a GC electrode in a stirred assay solution of compound (a) I, (b) II, (c) III. Trace # is for a precursor 1 to compounds I-III (Scheme 2). Arrows indicate the addition of 50 μL aliquots of hydroquinone (HQ) and leukocyte esterase (LE) to generate 0.54 μM HQ and 86.7 μg L^−1 LE protein in a solution. Assay solution, pH 7.40 PBS solution containing 60 μg mL^−1 of compound I-III or precursor 1. Traces were overlaid and shortened to show only the linear portion of ascending I-t segments. Potential, 0.40 V.
The initial electrochemical tests were performed to assess a degree of the recognition of compounds I-III by LE as its substrates. […]
The ICECEA was conducted by using phosphate buffer saline (PBS) solutions (pH 7.40, 154 mM NaCl) that contained either a tested compound, HQ, or LE. The current flowing through the GC electrode was measured while spiking 5.00 mL of a stirred assay solution of tested compound with triplicate aliquots of HQ solution and an aliquot of LE solution (FIG. 1). […]

Row | SMILES | Km (leukocyte esterase (LE) [1]) | kcat (leukocyte esterase (LE) [1]) | kcat Km^−1 (leukocyte esterase (LE) [1]) | solubility [2] | Average activity of single WBC [3] | detection limit of LE assay ([3]; human leukocyte suspensions, ICECEA) | recognition by LE as substrate (rising I-t segment after LE addition) (leukocyte esterase (LE) [4])
1 | COC(=O)c1cncc(S(=O)(=O)N[C@@H](C)C(=O)Oc2ccc(OC(=O)[C@H](C)NS(=O)(=O)c3cncc(C(=O)OC)c3)cc2)c1 [Compound III, methyl 5-{[(2S)-1-(4-{[(2S)-2-[5-(methoxycarbonyl)pyridine-3-sulfonamido]propanoyl]oxy}phenoxy)-1-oxopropan-2-yl]sulfamoyl}pyridine-3-carboxylate] | 11 µM | 6.4 s⁻¹ | 580000 M⁻¹ s⁻¹ | 4000 µg/mL (≈ 6150 µM) | 4.5 nU | 20 WBC μL^−1 | 
2 | C[C@H](NS(=O)(=O)c1cccnc1)C(=O)Oc1ccc(OC(=O)[C@H](C)NS(=O)(=O)c2cccnc2)cc1 [Compound I, 4-(((pyridin-3-ylsulfonyl)-L-alanyl)oxy)phenyl (pyridin-3-ylsulfonyl)-L-alaninate] | 12 µM | 3.2 s⁻¹ | 270000 M⁻¹ s⁻¹ | 50 µg/mL (≈ 93.5 µM) | 0.8 nU |  | 
3 | COc1ccc(S(=O)(=O)N[C@@H](C)C(=O)Oc2ccc(OC(=O)[C@H](C)NS(=O)(=O)c3ccc(OC)nc3)cc2)cn1 [Compound II, 4-((((6-methoxypyridin-3-yl)sulfonyl)-L-alanyl)oxy)phenyl ((6-methoxypyridin-3-yl)sulfonyl)-L-alaninate] | 14 µM | 5.3 s⁻¹ | 380000 M⁻¹ s⁻¹ | 500 µg/mL (≈ 841 µM) | 1.5 nU |  | 
4 | C[C@H](N)C(=O)Oc1ccc(OC(=O)[C@H](C)N)cc1 [precursor 1, 1,4-phenylene (2S,2′S)-bis(2-aminopropanoate)-bis hydrochloride] |  |  |  |  |  |  | no rising I-t segment
